According to paper PMC12036875, “Mitochondria-targeting natural product rhein conjugated with dichloroacetate as the dual inhibitor of glycolysis and oxidative phosphorylation to off energize cancer cells and induce ROS storm” (Theranostics, 2025):

Experiments:
[1] = system: Cyt C protein in 4T1 cells; experiment: Western blot of Cyt C; assay type: cell-based, Mouse; settings: 6.25 μM, 24 h
Description: The opening of mPTP in mitochondria often leads to the release of pro-apoptotic factor such as cytochrome C (Cyt C), thereby inducing apoptosis. Western blot was applied to measure the level of Cyt C in 4T1 cells after treatment with different drugs. The ratio of the integrated density value of target Cyt C protein to the internal parameter β-actin protein was also analyzed (Figure 4B). […] The released Cyt C in the rhein and R + D groups was 4.4- and 5.0-fold than that of the control group, respectively, clarifying that rhein component could boost the release of Cyt C in 4T1 cells.
4T1 cells were seeded in 6-well plates at a density of 20 × 10^4 cells per well and cultured for 24 h. Then the cells were treated with rhein, DCA, R + D and Rhein-DCA conjugate, each at a concentration of 6.25 μM for 24 h. Cells were washed twice with PBS and lysed by RIPA total protein extraction solution containing multiple protease inhibitors for 30 min while being maintained on ice. The lysate was centrifuged at 9391 G for 10 min at 4 °C to obtain the total protein solution. The concentrations of total protein were determined with BCA Protein Assay Kit. The protein was further denatured with 5 × protein loading buffer at 100 °C for 15 min. Sodium dodecyl sulfate polyacrylamide gel electrophoresis was conducted to separate the protein and transferred it to PVDF membranes. The PVDF membranes were blocked with 5% skim milk for 30 min at room temperature and incubated with indicated primary antibodies: Anti-Cytochrome C Rabbit pAb (1:1000); Anti-β-actin Rabbit pAb (1:1000); or Anti-PDHA1 Rabbit mAb (phosphoS^293) (1:1000) overnight at 4 °C. The membranes were incubated with HRP conjugated Goat Anti-Rabbit IgG (H+L) (1:5000), respectively, for 30 min at room temperature and then analyzed by chemiluminescence (Clinx,6100).

4T1 tumor tissue [2] = experiment: Lactate detection in tumor tissue (ELISA); assay type: in vivo, Balb/c mice; settings: 20 mg/kg oral, 24 days
From the text: (§1) The TAMs are the prominent components in the TEM and play a critical role in tumoral immunosuppression. Repolarization of protumor M2 phenotype into antitumor M1 phenotype is promising for malignant tumors. On the one hand, as a key metabolite fueling M2 polarization, lactate is very important in modulating the polarization state of macrophages within the tumor microenvironment. To verify that Rhein-DCA conjugate reprogrammed the metabolism of cells on solid tumors, we analyzed the expression of pPDHA1-Ser^293 protein in tumor tissues with immunohistochemical staining (IHC) (Figure 7A). […] The end product lactate of glycolysis decreased 20%, consistent with DCA's ability to reverse the Warburg effect. […] On the other hand, the ICD behavior of cancer cells also can activate TAMs into M1 polarization. Then, the release of HMGB1 was evaluated to assess the ICD effect in vivo with immunofluorescence staining (IF) (Figure 7C).
Tumor tissues were collected and homogenized in ice-cold PBS (1:10, w/v). The tissue was disrupted using sonication in ice bath (power 400 W, the duration of sonication is 3 s, the interval duration of 3 s, total sonication time of 20 min). The homogenate was centrifuged at 5000 G for 10 min at 4 °C to obtain the supernatant. The lactate content was analyzed with a lactate ELISA kit according to the manufacturer's protocol. The results were normalized to the weight of the tumor and reported as µmol lactate/g tissue.

4T1 tumor tissue [3] = experiment: IHC of pPDHA1-Ser293 and IF of HMGB1 in tumor slices; assay type: in vivo, Balb/c mice; settings: 20 mg/kg oral, 24 days; for pPDHA1-Ser293 protein level in tumor tissue (IHC): vs vehicle
From the text: as §1
After 24 days, the mice were euthanized, and then tumors were excised to photographing and weighting. The tumors in each group were performed with TUNEL (green fluorescence) and H&E assay. In addition, immunohistochemical staining was conducted on the tumor tissue to determine the pPDHA1-Ser^293 protein level. Besides, immunofluorescence staining was used to detect the expression of HMGB1 protein in the tumor.

4T1 cells = experiment: ROS generation assay; assay type: cell-based, Mouse; settings: for intracellular ROS (DCFH-DA fluorescence intensity): 6.25 μM, 6 h
Description: Rhein is thought to trigger the generation of ROS inside cells by inhibiting mitochondrial complex II, blocking electron transfer from succinate to ubiquinone, which leads to electron leakage at the flavoprotein site, [32]. Therefore, we investigated the ROS production within 4T1 cells in control, DCA, rhein, R + D and Rhein-DCA groups. […] Then, the cellular superoxide radical anion type of ROS production was further detected using dihydroethidium (DHE) fluorescence dyes after incubation with 4T1 cells. […] The flow cytometry was used to further confirm the types of reactive oxygen species, including singlet oxygen (^1O2) and hydroxyl radicals (·OH). The ^1O2 increased greatly about 2.4-fold compared with the control group, and ·OH increased about 1.4-fold (Figure 5D-E). […] Due to the conjugating of rhein, the more mitochondrial accumulation and enhanced PDK inhibition activity of DCA promoted the energy metabolism to redirect towards OXPHOS, increased the mitochondrial electron flux, and amplified the generation of ROS. Excessive ROS would cause oxidative damage of mitochondria and further frustrate OXPHOS, leading to the effectively suppress for cancer cells.
The generation of intracellular ROS within 4T1 cells was measured with DCFH-DA, BBoxiProbe O28 and BBoxiProbe O68 and evaluated by flow cytometry. 4T1 cells were seeded into 6-well plates at a density of 10 × 10^4 cells per well and cultured at 37 °C for 24 h. The cells were treated with rhein (6.25 μM), DCA (6.25 μM), R + D (6.25 μM + 6.25 μM) and Rhein-DCA (6.25 μM) for another 6 h. Cells were detached from the plates with 0.25% Trypsin-EDTA after washed twice with PBS, flowing staining with DCFH-DA (10 μM), BBoxiProbe O28 (Ex = 516 nm, Em = 606 nm) and BBoxiProbe O68 (Ex = 516 nm, Em = 606 nm) for 20 min at 37 °C in the dark.
The level of intracellular superoxide radical anion in 4T1 cells was analyzed with DHE by confocal microscope. 4T1 cells were seeded into confocal dishes with a density of 10 × 10^4 cells per well and treated with various drugs for 24 h and washed twice with PBS, flowing staining with DHE probe (5 μM) for 30 min at 37 °C in the dark. The cellular nuclei were stained with Hoechst 33342 for 10 min at room temperature. The fluorescent images were observed by confocal microscope.

| SMILES | released Cyt C, in words [1] | decrease of tumor lactate (4T1 tumor tissue [2]; vs vehicle) | HMGB1 localisation in tumor slices (IF) (4T1 tumor tissue [3]) | pPDHA1-Ser293 protein level in tumor tissue (IHC) (4T1 tumor tissue [3]) | released Cyt C relative to control group (Cyt C/β-actin) [1] | intracellular ROS (DCFH-DA fluorescence intensity) (4T1 cells; flow cytometry) | tumor lactate level, in words (4T1 tumor tissue [2]) | superoxide radical anion (DHE fluorescence) (4T1 cells; 24 h, CLSM) | ^1O2 increase compared with control group (4T1 cells; flow cytometry) | ·OH increase compared with control group (4T1 cells; flow cytometry) | tumor lactate level as percentage of the vehicle group (4T1 tumor tissue [2]) |
| --- | --- | --- | --- | --- | --- | --- | --- | --- | --- | --- | --- |
| O=C(O)C(Cl)Cl [DCA, Dichloroacetate] | could almost be disregarded | 20% | almost all of HMGB1 overlapped with nucleus | obvious down-expression |  |  |  |  |  |  |  |
| O=C(O)c1cc(O)c2c(c1)C(=O)c1cccc(O)c1C2=O [Rhein, 4,5-dihydroxyanthraquinone-2-carboxylic acid] |  |  | almost all of HMGB1 overlapped with nucleus | did not significantly alter | 4.4 fold | slight enhancement | reduced tumor lactate levels |  |  |  |  |
| O=C(OCCOC(=O)C(Cl)Cl)c1cc(O)c2c(c1)C(=O)c1cccc(O)c1C2=O [Rhein-DCA] | more Cyt C than rhein and R + D groups |  | mostly appeared outside the nucleus with weak intensity | down-expression |  | stronger fluorescence signal |  | remarkable red intensity | about 2.4 fold | about 1.4 fold | 44% |
